Source: PMC12257073 (Cancer Research Communications, 2025)

Assay: Adverse events (treatment-related and all-cause) and dose-limiting toxicities, NCI CTCAE version 4.0
Conditions: all-cause adverse events
[1] = Group 1, Skin and subcutaneous tissue disorders

Procedure: The phase 1b portion of the study used a standard 3 + 3 dose-escalation design with a starting dose level 1 (DL1) of 37 mg oral daily TP-0903 (Supplementary Table S2) based on experience with 50 mg oral daily as a single agent in patients with solid tumors ([25]). Dose-limiting toxicities (DLT) were evaluated to establish the dose brought forward for an expansion cohort (phase 2). Seven patients were enrolled in the phase 1b study, which was completed in January 2021 with the decision to move forward with an expansion cohort of 37 mg oral daily. Across the phase 1b and phase 2 studies, 15 patients were enrolled and started on 37 mg TP-0903 oral daily on days 1 to 21 (group 1). […] One additional patient was enrolled at this time but was inadvertently started on 25 mg TP-0903 oral daily on days 1 to 21. […] In May 2021, an amendment was approved to allow enrollment of a new group 2 at 25mg oral daily on days 1 to 21 of TP-0903 (DL-1) in stage 2 of the phase 2 study.
Clinical response was assessed according to the modified 2017 European LeukemiaNet AML criteria ([26]). The primary endpoint was achievement of CR within six cycles of therapy. Secondary endpoints included toxicity, duration of response, OS, and the proportion of eligible patients who effectively transitioned to allogeneic stem cell transplantation. Exploratory endpoints included pharmacokinetics (PK), correlative genetic, and biochemical data; correlations between morphologic remission, spectral flow cytometry, and mutational remission; and duration of remission or survival. […] Adverse events (AE) were graded according to the NCI Common Terminology Criteria for Adverse Events version 4.0 ([27]).

CN1CCN(Cc2ccc(Nc3ncc(Cl)c(Nc4ccccc4S(=O)(=O)N(C)C)n3)cc2)CC1.O=C(O)C(O)C(O)C(=O)O.O=C(O)C(O)C(O)C(=O)O [TP-0903, 2-(5-chloro-2-(4-((4-methylpiperazin-1-yl)methyl)phenylamino)pyrimidin-4-yl)amino-N,N-dimethylbenzene-1-sulfonamide di-tartrate salt]
Atrial fibrillation with RVR, All (Group 1, Missing Categories): 0 (0) | Atrial fibrillation with RVR, Grade 1 2 (Group 1, Missing Categories): 0 (0) | Atrial fibrillation with RVR, Grade 3+ (Group 1, Missing Categories): 0 (0) | COPD exacerbation, All (Group 1, Missing Categories): 1 (6.7) | COPD exacerbation, Grade 1 2 (Group 1, Missing Categories): 1 (6.7) | COPD exacerbation, Grade 3+ (Group 1, Missing Categories): 0 (0) | Chest pain (non-cardiac), All (Group 1, Missing Categories): 0 (0) | Chest pain (non-cardiac), Grade 1 2 (Group 1, Missing Categories): 0 (0) | Chest pain (non-cardiac), Grade 3+ (Group 1, Missing Categories): 0 (0) | Death, NOS, All (Group 1, Missing Categories): 1 (6.7) | Death, NOS, Grade 1 2 (Group 1, Missing Categories): 0 (0) | Death, NOS, Grade 3+ (Group 1, Missing Categories): 1 (6.7) | Diarrhea (intermittent), All (Group 1, Missing Categories): 0 (0) | Diarrhea (intermittent), Grade 1 2 (Group 1, Missing Categories): 0 (0) | Diarrhea (intermittent), Grade 3+ (Group 1, Missing Categories): 0 (0) | Hand-Foot Syndrome, All (Group 1, Missing Categories): 1 (6.7) | Hand-Foot Syndrome, Grade 1 2 (Group 1, Missing Categories): 1 (6.7) | Hand-Foot Syndrome, Grade 3+ (Group 1, Missing Categories): 0 (0) | Hip Pain, All (Group 1, Missing Categories): 1 (6.7) | Hip Pain, Grade 1 2 (Group 1, Missing Categories): 1 (6.7) | Hip Pain, Grade 3+ (Group 1, Missing Categories): 0 (0) | Hypokalemia (intermittent), All (Group 1, Missing Categories): 0 (0) | Hypokalemia (intermittent), Grade 1 2 (Group 1, Missing Categories): 0 (0) | Hypokalemia (intermittent), Grade 3+ (Group 1, Missing Categories): 0 (0) | Hypotension (intermittent), All (Group 1, Missing Categories): 0 (0) | Hypotension (intermittent), Grade 1 2 (Group 1, Missing Categories): 0 (0) | Hypotension (intermittent), Grade 3+ (Group 1, Missing Categories): 0 (0) | INR - Increased, All (Group 1, Missing Categories): 1 (6.7) | INR - Increased, Grade 1 2 (Group 1, Missing Categories): 1 (6.7) | INR - Increased, Grade 3+ (Group 1, Missing Categories): 0 (0) | Inflammation (bilateral knee), All (Group 1, Missing Categories): 0 (0) | Inflammation (bilateral knee), Grade 1 2 (Group 1, Missing Categories): 0 (0) | Inflammation (bilateral knee), Grade 3+ (Group 1, Missing Categories): 0 (0) | Itching (intermittent), All (Group 1, Missing Categories): 0 (0) | Itching (intermittent), Grade 1 2 (Group 1, Missing Categories): 0 (0) | Itching (intermittent), Grade 3+ (Group 1, Missing Categories): 0 (0) | Microvascular ischemic disease, All (Group 1, Missing Categories): 0 (0) | Microvascular ischemic disease, Grade 1 2 (Group 1, Missing Categories): 0 (0) | Microvascular ischemic disease, Grade 3+ (Group 1, Missing Categories): 0 (0) | Pain (leg), All (Group 1, Missing Categories): 0 (0) | Pain (leg), Grade 1 2 (Group 1, Missing Categories): 0 (0) | Pain (leg), Grade 3+ (Group 1, Missing Categories): 0 (0) | Retinal Detachment, All (Group 1, Missing Categories): 1 (6.7) | Retinal Detachment, Grade 1 2 (Group 1, Missing Categories): 1 (6.7) | Retinal Detachment, Grade 3+ (Group 1, Missing Categories): 0 (0) | Steroid-induced hyperglycemia, All (Group 1, Missing Categories): 0 (0) | Steroid-induced hyperglycemia, Grade 1 2 (Group 1, Missing Categories): 0 (0) | Steroid-induced hyperglycemia, Grade 3+ (Group 1, Missing Categories): 0 (0) | Symptomatic anemia, All (Group 1, Missing Categories): 0 (0) | Symptomatic anemia, Grade 1 2 (Group 1, Missing Categories): 0 (0) | Symptomatic anemia, Grade 3+ (Group 1, Missing Categories): 0 (0) | lung fullness, All (Group 1, Missing Categories): 1 (6.7) | lung fullness, Grade 1 2 (Group 1, Missing Categories): 1 (6.7) | lung fullness, Grade 3+ (Group 1, Missing Categories): 0 (0) | neuropathy (BLE), All (Group 1, Missing Categories): 0 (0) | neuropathy (BLE), Grade 1 2 (Group 1, Missing Categories): 0 (0) | neuropathy (BLE), Grade 3+ (Group 1, Missing Categories): 0 (0) | pericarditis (intermittent), All (Group 1, Missing Categories): 0 (0) | pericarditis (intermittent), Grade 1 2 (Group 1, Missing Categories): 0 (0) | pericarditis (intermittent), Grade 3+ (Group 1, Missing Categories): 0 (0) | Dry skin, All [1]: 1 (6.7) | Dry skin, Grade 1 2 [1]: 1 (6.7) | Dry skin, Grade 3+ [1]: 0 (0) | Ecchymosis, All [1]: 1 (6.7) | Ecchymosis, Grade 1 2 [1]: 1 (6.7) | Ecchymosis, Grade 3+ [1]: 0 (0) | Erythema nodosum, All [1]: 0 (0) | Erythema nodosum, Grade 1 2 [1]: 0 (0) | Erythema nodosum, Grade 3+ [1]: 0 (0) | Erythema, All [1]: 1 (6.7) | Erythema, Grade 1 2 [1]: 1 (6.7) | Erythema, Grade 3+ [1]: 0 (0) | Hyperhidrosis, All [1]: 0 (0) | Hyperhidrosis, Grade 1 2 [1]: 0 (0) | Hyperhidrosis, Grade 3+ [1]: 0 (0) | Nail discolouration, All [1]: 1 (6.7) | Nail discolouration, Grade 1 2 [1]: 1 (6.7) | Nail discolouration, Grade 3+ [1]: 0 (0) | Petechiae, All [1]: 0 (0) | Petechiae, Grade 1 2 [1]: 0 (0) | Petechiae, Grade 3+ [1]: 0 (0) | Photosensitivity reaction, All [1]: 1 (6.7) | Photosensitivity reaction, Grade 1 2 [1]: 1 (6.7) | Photosensitivity reaction, Grade 3+ [1]: 0 (0) | Pruritus, All [1]: 1 (6.7) | Pruritus, Grade 1 2 [1]: 1 (6.7) | Pruritus, Grade 3+ [1]: 0 (0) | Rash papular, All [1]: 0 (0) | Rash papular, Grade 1 2 [1]: 0 (0) | Rash papular, Grade 3+ [1]: 0 (0) | Rash, All [1]: 1 (6.7) | Rash, Grade 1 2 [1]: 1 (6.7) | Rash, Grade 3+ [1]: 0 (0) | Scab, All [1]: 0 (0) | Scab, Grade 1 2 [1]: 0 (0) | Scab, Grade 3+ [1]: 0 (0) | Skin disorder, All [1]: 1 (6.7) | Skin disorder, Grade 1 2 [1]: 1 (6.7) | Skin disorder, Grade 3+ [1]: 0 (0) | Skin lesion, All [1]: 0 (0) | Skin lesion, Grade 1 2 [1]: 0 (0) | Skin lesion, Grade 3+ [1]: 0 (0) | Swelling face, All [1]: 0 (0) | Swelling face, Grade 1 2 [1]: 0 (0) | Swelling face, Grade 3+ [1]: 0 (0) | Hypertension, All (Group 1, Vascular disorders): 1 (6.7) | Hypertension, Grade 1 2 (Group 1, Vascular disorders): 0 (0) | Hypertension, Grade 3+ (Group 1, Vascular disorders): 1 (6.7) | Hypotension, All (Group 1, Vascular disorders): 3 (20) | Hypotension, Grade 1 2 (Group 1, Vascular disorders): 2 (13.3) | Hypotension, Grade 3+ (Group 1, Vascular disorders): 1 (6.7) | Lymphoedema, All (Group 1, Vascular disorders): 0 (0) | Lymphoedema, Grade 1 2 (Group 1, Vascular disorders): 0 (0) | Lymphoedema, Grade 3+ (Group 1, Vascular disorders): 0 (0) | Peripheral venous disease, All (Group 1, Vascular disorders): 0 (0) | Peripheral venous disease, Grade 1 2 (Group 1, Vascular disorders): 0 (0) | Peripheral venous disease, Grade 3+ (Group 1, Vascular disorders): 0 (0) | Atrial fibrillation with RVR, All (Group 2, Missing Categories): 1 (8.3) | Atrial fibrillation with RVR, Grade 1 2 (Group 2, Missing Categories): 1 (8.3) | Atrial fibrillation with RVR, Grade 3+ (Group 2, Missing Categories): 0 (0) | COPD exacerbation, All (Group 2, Missing Categories): 0 (0) | COPD exacerbation, Grade 1 2 (Group 2, Missing Categories): 0 (0) | COPD exacerbation, Grade 3+ (Group 2, Missing Categories): 0 (0) | Chest pain (non-cardiac), All (Group 2, Missing Categories): 1 (8.3) | Chest pain (non-cardiac), Grade 1 2 (Group 2, Missing Categories): 1 (8.3) | Chest pain (non-cardiac), Grade 3+ (Group 2, Missing Categories): 0 (0) | Death, NOS, All (Group 2, Missing Categories): 0 (0) | Death, NOS, Grade 1 2 (Group 2, Missing Categories): 0 (0) | Death, NOS, Grade 3+ (Group 2, Missing Categories): 0 (0) | Diarrhea (intermittent), All (Group 2, Missing Categories): 1 (8.3) | Diarrhea (intermittent), Grade 1 2 (Group 2, Missing Categories): 1 (8.3) | Diarrhea (intermittent), Grade 3+ (Group 2, Missing Categories): 0 (0) | Hand-Foot Syndrome, All (Group 2, Missing Categories): 0 (0) | Hand-Foot Syndrome, Grade 1 2 (Group 2, Missing Categories): 0 (0) | Hand-Foot Syndrome, Grade 3+ (Group 2, Missing Categories): 0 (0) | Hip Pain, All (Group 2, Missing Categories): 0 (0) | Hip Pain, Grade 1 2 (Group 2, Missing Categories): 0 (0) | Hip Pain, Grade 3+ (Group 2, Missing Categories): 0 (0) | Hypokalemia (intermittent), All (Group 2, Missing Categories): 1 (8.3) | Hypokalemia (intermittent), Grade 1 2 (Group 2, Missing Categories): 1 (8.3) | Hypokalemia (intermittent), Grade 3+ (Group 2, Missing Categories): 0 (0)
